# Experimental data as given in US6906179B2, “Antibody to SNIP1” (The General Hospital Corporation, priority 1999, dated 2005).
# Where two headings read alike, the source gives them in different places. *1 amine or outer side, *2 acyl side, *3 side chain or, on linkers, in order; H or OH if unused. Where a SMILES comes first, the peptide text is derived from it. Bridges are numbered along the chain shown (N, C = ends). Roman numbers before positions name the chains, in order. [ ]: non-standard residue; d: D form. Actinocin(9to1) = Cc1c2oc3c(C)ccc(C(=O)[*:1])c3nc-2c(C(=O)[*:2])c(N)c1=O; NMeV = CN[C@H](C(=O)O)C(C)C; Sar = CNCC(=O)O
# Tests used:
# SNIP-1 protein level = experiment: ALK3Q233D-induced degradation of SNIP-1 in transfected COS cells, Western blot; type: cell-based; details: inhibitors added 10 hours before cell lysis; ALK3Q233D transfected COS cells
# Text: The novel Smad1 interactor is a nuclear proteip (termed as Smad1 Nuclear Interactor Protein 1, SNIP-1, SEQ ID No. 3), with a carboxyterminal domain that is highly homologous to the aminoterminus of the nuclear inhibitor of protein phosphatase 1 (NIPP-1) (Wang & Lechleider, unpublished) (FIG. 31A & C). NIPP-1 (VanEynde et al., 1995) is known to be rapidly processed into smaller heat-stable intermediates, a process that may be mediated by proteasome (see Discussion in Jagiello et al., 1995). SNIP-1 is a strong interactor of Smad1, that also binds to both antizyme and HsN3 in the yeast two-hybrid assays (FIG. 311B).
# Forty-eight hours after transfection, COS cells were lysed in an equal volume of lysis buffer (300 ul/plate), and the total protein concentration of each sample was measured. No major difference in protein concentration was detected among the lysates. The protein level of SNIP-1 in 100 ug of total protein lysate was determined by Western blot using anti-T7 monoclonal antibody. […] Such a decrease is dependent upon the coexpression of Smad1, DPC4 and antizyme, since replacing each of these three proteins with an unrelated protein (β galactosidase) abolishes such a decrease in ALK3Q233D transfected cells (FIG. 31D, top panel, lanes 9-14). […] The total amount of proteins in the tested lanes was normalized before loading, and equal loading was confirmed by Western blot using anti-a tubulin (FIG. 31D, bottom panel).
# To determine whether the decrease in the level of SNIP-1 protein level is caused by proteasome mediated degradation, we used inhibitors of the proteasome. Proteasome inhibitors that selectively block different proteolytic activities of the proteasome are powerful tools for studying the role of proteasomes in many aspects of cell growth, differentiation and apoptosis (Hilt et al., 1993; Palomebella et al., 1994; Figueiredo-Pereira et al., 1994; Thraenckner et al., 1994; Read et al., 1995; Grimm et al., 1996, for reviews, see Coux et al., 1996). […]
# rat sympathetic neurons = experiment: OP-1 induced dendritic growth of rat sympathetic neurons; type: cell-based; details: for inhibition of OP-1 induced dendritic growth: reversible peptidyl aldehyde inhibitors
# Method: If Smad1 and DPC4 signal through proteasome mediated proteolysis, proteasome inhibitors should block the signaling of BMPs. We thus directly tested the effects of the proteasome inhibitors on the signaling pathways of BMPs that signal via Smad1 activation. […] The EC50 for the inhibitory activity of lactacystin was ˜100 nM and maximal effects were obtained with 4-6 hour pretreatments (not shown).
# To determine the time course of sensitivity to lactacystin with respect to the signaling pathway of OP-1, lactacystin was added to the media at various time points after the addition of OP-1 (FIG. 32, bottom panel B).
# endogenous HEF1 [1] = experiment: TGF-β regulation of endogenous HEF1 in A549 lung carcinoma cells; type: cell-based
# Method: In A549 lung carcinoma cells, which predominantly express p115HEF1, a decrease of endogenous p115HEF1 was detected after 15 min exposure to TGF-β. Furthermore, LLnL was able to block the TGF-β induced decrease of endogenous HEF1, indicating the involvement of the proteasome in this event. The change of p105HEF1 in response to TGF-β was also observed, but not as apparent as p115HEF1 due to the very low level of p105HEF1 in this cell line. It was noted that the steady-state level of both p115HEF1 and p105HEF1 increased after 3 hrs of TGF-β stimulation. […] To directly test this, we performed a time-course Northern blot on HEF1 mRNA isolated from A549 cells treated with TGF-β for different time periods. […] Thus, TGF-β down-regulates HEF1 protein level via proteasomal degradation and also induces HEF1 mRNA level via transcriptional activation, which may serve as a negative feedback mechanism to restore HEF1 protein level.
# HEF1 protein level = experiment: Smad3-induced proteasomal degradation of HEF1 in 293 cells; type: cell-based; details: for Smad3-induced reduction (degradation) of HEF1 protein level: 293 cells, presence or absence of type I receptors
# Text: Two different forms of HEF1, p115HEF1 and p105HEF1, have been previously reported to be derived from differential phosphorylation (Law et al., 1996, Mol. Cell. Boil. 16: 3327; Minegishi et al., 1996, J. Exp. Med. 184: 1365; Lae et al., 1998, supra). Both forms of HEF1 were detected at a similar level in 293 cells after HEF1 transfection for 24 hrs (data not shown). However, p115HEF1 was the predominant form that associates with Smad3, and to a much lesser extent, with Smad1 and Smad2. Neither p115HEF1 nor p105HEF1 was detected in the immunoprecipitates of Smad4.
# It was tested whether the observed reduction of HEF1 level by Smad3 is regulated by TGF-β and activin type I receptor activation and whether the reduction is mediated by proteasomal degradation. The Smad3-mediated reduction of HEF1 protein level was further enhanced in the presence of the overexpressed wildtype TGF-β type I receptor and wildtype activin type I receptor, as well as the constitutively active mutant TGF-β type I receptor (R4T204D) and the activated mutant activin type I receptor (R2T206D)). […]
# Like other Smad family proteins, Smad3 can be divided into three subdomains: an amino-terminal MH1 domain, a central linker region and a carboxyl-terminal MH2 domain The N-terminal MH1 domain of Smad3 (Smad3N) has the ability to bind to specific DNA sequences (Massague, 1998, supra; Derynck et al., 1998, Cell 95: 737; Wrana, 2000, Cell 100: 189), whereas the C-terminal MH2 domain interacts with the TGF-β type I receptor as well as multiple transcriptional regulators (Massague, 1998, supra; Derynck, 1998, supra; Wrana, 2000, supra). […] In cells that were not treated with LLnL, p115HEF1 and smaller amount of p105HEF1 were detected in the immunoprecipitates of Smad3N, Smad3C and full length Smad3, with the strongest HEF1 signal detected in the immunoprecipitates of Smad3C. […] In fact, when LLnL stabilizes HEF1, the highest amount of HEF1 was detected in the immunoprecipitates of full length Smad3. […]
# [2] = test system: biological activities of BMPs and TGF-beta; experiment: Inhibition of the biological activities of BMPs and TGF-beta (summary statement)
# [3] = test system: calpain, cathepsin B, chymotrypsin, trypsin and papain; details: cited from earlier work
# proteasome = details: LLnL versus LLM; cited from earlier work
# endogenous HEF1 [4] = experiment: TGF-β regulation of endogenous HEF1 in H9 cells, Western blot and pulse chase; type: cell-based, human
# Method: The ability of TGF-β to regulate the protein level of endogenous HEF1 in TGF-β responsive cells was tested. The human T lymphoblastoid H9 cells were either not exposed to TGF-β or pre-treated with TGF-β for different time periods. Cells were then harvested at the same time and HEF1 protein level was determined by Western blot using anti-HEF1 antibody. […] The predominant form of HEF1 labeled within the 30 min pulse period is p105HEF1. The pulse-labeled p105HEF1 was reduced to basal level within 60 min in TGF-β-stimulated cells but took more than 120 min in the absence of TGF-β. Thus, TGF-β can enhance HEF1 degradation in native H9 cells.
# HEF1 mRNA = experiment: Induction of HEF1 mRNA in HaCaT cells; type: cell-based
# ischemic brain injury [5] = details: single ICV injection of 1 μg/kg at 2, 4 or 6 hour before; assessed 48 hours after injury; cited from earlier work
# ischemic brain injury [6] = details: cited from earlier work
# ischemic brain injury [7] = details: cited from earlier work; remark: listed apart in the source
molecule,measurement,setting,value
CSCCC(C=O)NC(=O)C(CC(C)C)NC(=O)C(CC(C)C)NC(C)=O (stereo not drawn) [LLM] (Ac-Leu-Leu-Met-aldehyde; configuration not given here),ALK3Q233D induced decrease of SNIP-1 protein level,SNIP-1 protein level,reversed
same,inhibition of OP-1 induced dendritic growth,rat sympathetic neurons,Inhibition of OP-1 induced dendritic growth was also observed
"Cc1c2oc3c(C)ccc(C(=O)N[C@@H]4C(=O)N[C@H](C(C)C)C(=O)N5CCC[C@H]5C(=O)N(C)CC(=O)N(C)[C@@H](C(C)C)C(=O)O[C@@H]4C)c3nc-2c(C(=O)N[C@@H]2C(=O)N[C@H](C(C)C)C(=O)N3CCC[C@H]3C(=O)N(C)CC(=O)N(C)[C@@H](C(C)C)C(=O)O[C@@H]2C)c(N)c1=O [actinomycin D, reference compound] (I: T[dV]P[Sar][NMeV] / II: T[dV]P[Sar][NMeV]; ester I:1-I:C, II:1-II:C; linker I:N-II:N via Actinocin(9to1))",increase of steady-state p115HEF1 and p105HEF1 after 3 hrs of TGF-β stimulation,endogenous HEF1 [1],can be inhibited
CC(=O)N[C@@H](CSC(=O)[C@]1([C@@H](O)C(C)C)NC(=O)[C@H](C)[C@@H]1O)C(=O)O [lactacystin],ALK3Q233D induced decrease of SNIP-1 protein level,SNIP-1 protein level,reversed
same,EC50,"rat sympathetic neurons; Sympathetic neuron, rat sympathetic neurons, read-out: EC50 for the inhibitory activity on OP-1 induced dendritic growth",~100 nM
same,OP-1 induced dendritic growth,rat sympathetic neurons; added later than 3 hrs after OP-1,resistance to the inhibitory effects developed after 3 hrs and are apparent after 8 hrs
same,OP-1 induced dendritic growth,rat sympathetic neurons; added within 3 hrs of OP-1 exposure,fully inhibited
same,ability to form dendrites in the presence of OP-1 or BMP-6,rat sympathetic neurons; pretreatment for 4 hours,concentration-dependent decrease
same,axonal growth or cell survival,rat sympathetic neurons; rat sympathetic neurons,did not affect
same,Smad3-induced reduction (degradation) of HEF1 protein level,HEF1 protein level,blocked
same,biological activities of BMPs and TGF-beta,[2],able to inhibit
same,activity of other proteases,[3],does not inhibit
N-acetyl-L-Leucinyl-L-Leucinal-L-norleucinal [LLnL],ALK3Q233D induced decrease of SNIP-1 protein level,SNIP-1 protein level,reversed
same,"inhibition of OP-1 activity, relative concentration",rat sympathetic neurons; LLnL versus LLM,inhibited OP-1 activity at lower concentrations than LLM
same,inhibition of OP-1 induced dendritic growth,rat sympathetic neurons,Inhibition of OP-1 induced dendritic growth was also observed
same,Smad3-induced reduction (degradation) of HEF1 protein level,HEF1 protein level,able to block
same,Smad3N-mediated reduction of p115HEF1,HEF1 protein level; HEF1 co-expressed with Smad3N,blocked
same,TGF-β induced decrease of endogenous HEF1,endogenous HEF1 [1],able to block
same,biological activities of BMPs and TGF-beta,[2],able to inhibit
same,potency as inhibitor of proteasome activity,proteasome,more potent inhibitor of proteasome activity than LLM
TGF-β,exposure after which decrease of endogenous p115HEF1 was detected,endogenous HEF1 [1],15 min
same,steady-state level of p115HEF1 and p105HEF1,endogenous HEF1 [1]; after 3 hrs of TGF-β stimulation,increased
same,"level of HEF1 mRNA, Northern blot",endogenous HEF1 [1]; as early as 1 hr after treatment,dramatically increased
same,steady-state levels of p115 and p105 HEF1,endogenous HEF1 [4],started to decrease after 30 min exposure
same,time for pulse-labeled p105HEF1 to be reduced to basal level,"endogenous HEF1 [4]; TGF-β-stimulated, 30 min pulse",≤ 60 min
same,p105HEF1 level,endogenous HEF1 [4]; after 3 hrs of TGF-β treatment,greatly reduced
same,p115HEF1 level,endogenous HEF1 [4]; after 3 hrs of TGF-β treatment,almost undetectable
same,HEF1 mRNA,HEF1 mRNA,induction of HEF1 mRNA
"TGF-β1: prototypical member of the TGFβ family of cytokines, exogenously administered",decrease in ischemic area of the neocortex,ischemic brain injury [5],≈ 10%
same,neuroprotection,ischemic brain injury [6]; 0.5 or 50 ng ICV,no neuroprotection
same,CA1 pyramidal cell survival,ischemic brain injury [6]; same amount (4 ng) by ICV,48%
same,pyramidal cell survival,"ischemic brain injury [6]; single 4 ng intrahippocampal injection 1 h prior to TFGI, assessed 7 days after",50%
same,deficits in water maze learning ability and asymmetry in somatosensory functions,"ischemic brain injury [7]; 10 ng ICV, first 10 days after injury",improved
same,intensity of microglial activation,"ischemic brain injury [7]; 10 ng, 48 hours after ischemic injury",significantly reduced
same,neuroprotection,ischemic brain injury [7]; 2 or 50 ng on the same schedule,did not provide significant neuroprotection
same,area of cortical infarction,ischemic brain injury [7]; dose response,bell-shaped dose-response effect
same,"neuroprotection in cortex, thalamus, striatum and dentate gyrus","ischemic brain injury [7]; single ICV dose of 10 ng 2 hours after ischemic injury, assessed 5 days after",significant neuroprotection
same,CA1-CA4 hippocampal neurons,ischemic brain injury [7]; single ICV dose of 10 ng 2 hours after ischemic injury,not protected
